Laboratory results published in patent US20260265321A1, “PEPTIDE AND POLYPEPTIDE INHIBITING THE NF-KB SIGNALING PATHWAY” (Centre National de la Recherche Scientifique, priority 2023, published 2026).
Residues, ends and D or L forms follow the SMILES beside them.

Legend:
6×His-IKKβ(1-669) EE = biological target: T1, 6×His-IKKβ(1-669) EE (Homo sapiens, UniProt O14920, S177E/S181E); assay: MBP-pulldown of recombinant IKKβ by MBP-peptide fusions; type: binding; settings: 0.3 μM IKKβ, Western blot
T1 construct: a nearly full-length (residues 1-669) and constitutively active (S177E/S181E) mutant construct of human IKKβ; made in house; host or cells: Sf21 insect cells (baculovirus)
T1 sequence (O14920 1-669 S177E/S181E): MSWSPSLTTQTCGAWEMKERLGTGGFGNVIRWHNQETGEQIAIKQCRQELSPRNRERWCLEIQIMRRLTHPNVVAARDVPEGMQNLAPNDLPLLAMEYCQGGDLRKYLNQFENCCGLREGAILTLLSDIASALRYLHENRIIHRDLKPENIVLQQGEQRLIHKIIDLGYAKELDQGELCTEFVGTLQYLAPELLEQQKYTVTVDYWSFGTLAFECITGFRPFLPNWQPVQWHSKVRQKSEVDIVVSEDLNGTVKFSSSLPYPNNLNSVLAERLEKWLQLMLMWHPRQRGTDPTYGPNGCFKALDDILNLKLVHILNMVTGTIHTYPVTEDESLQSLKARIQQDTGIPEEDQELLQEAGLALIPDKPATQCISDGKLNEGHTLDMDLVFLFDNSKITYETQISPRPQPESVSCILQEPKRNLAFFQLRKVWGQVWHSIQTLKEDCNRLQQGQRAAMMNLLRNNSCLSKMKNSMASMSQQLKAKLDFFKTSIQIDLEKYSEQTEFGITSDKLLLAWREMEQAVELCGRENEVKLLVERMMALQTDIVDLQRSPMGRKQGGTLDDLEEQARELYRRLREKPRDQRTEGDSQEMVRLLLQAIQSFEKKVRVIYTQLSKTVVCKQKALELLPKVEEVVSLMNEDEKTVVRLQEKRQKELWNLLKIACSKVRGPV
Description: Experiments were performed in PD buffer (20 mM Tris pH 8.0, 150 mM NaCl, 2 mM DTT). For each experiment, 10 μl of amylose resin (dry bead volume) coupled to MBP-fusion constructs were incubated with […] of purified 6×His-IKKα(10-667) EE and 6×His-IKKβ (1-669) EE constructs adjusted at a concentration of 0.3 μM for 2 hours at 4° C. After two quick washing steps with PD buffer, complexes were eluted by incubation with 20 μl of the same buffer supplemented with 20 mM maltose for 15 minutes at 4° C. After mild centrifugation, supernatants were recovered and migrated onto two separate 10% SDS-PAGE gels. One gel was used for Western blot analysis to detect His-IKKα or His-IKKβ using and anti-6×His antibody (Sigma, #SAB4301134), the other for Coomassie staining to detect MBP-fusion proteins. Quantification of band intensity was done using the Image J software.

[1] = biological target: T2, endogenous IKK immunoprecipitated from HEK293T cells (Homo sapiens, UniProt O14920+O15111); assay: In vitro kinase assay with endogenous IKK, inhibition by synthetic peptides; type: biochemical; settings: 500 μM synthetic peptide, 1 μM 6×His-IκBα wt, 30° C.
T2 construct: endogenous canonical IKK, which was immunoprecipitated from HEK293T cells using an anti-NEMO antibody; endogenous in cells; host or cells: HEK293T cells induced with TNFα; anti-NEMO immunoprecipitate on protein G beads
T2 sequence (O14920 whole entry): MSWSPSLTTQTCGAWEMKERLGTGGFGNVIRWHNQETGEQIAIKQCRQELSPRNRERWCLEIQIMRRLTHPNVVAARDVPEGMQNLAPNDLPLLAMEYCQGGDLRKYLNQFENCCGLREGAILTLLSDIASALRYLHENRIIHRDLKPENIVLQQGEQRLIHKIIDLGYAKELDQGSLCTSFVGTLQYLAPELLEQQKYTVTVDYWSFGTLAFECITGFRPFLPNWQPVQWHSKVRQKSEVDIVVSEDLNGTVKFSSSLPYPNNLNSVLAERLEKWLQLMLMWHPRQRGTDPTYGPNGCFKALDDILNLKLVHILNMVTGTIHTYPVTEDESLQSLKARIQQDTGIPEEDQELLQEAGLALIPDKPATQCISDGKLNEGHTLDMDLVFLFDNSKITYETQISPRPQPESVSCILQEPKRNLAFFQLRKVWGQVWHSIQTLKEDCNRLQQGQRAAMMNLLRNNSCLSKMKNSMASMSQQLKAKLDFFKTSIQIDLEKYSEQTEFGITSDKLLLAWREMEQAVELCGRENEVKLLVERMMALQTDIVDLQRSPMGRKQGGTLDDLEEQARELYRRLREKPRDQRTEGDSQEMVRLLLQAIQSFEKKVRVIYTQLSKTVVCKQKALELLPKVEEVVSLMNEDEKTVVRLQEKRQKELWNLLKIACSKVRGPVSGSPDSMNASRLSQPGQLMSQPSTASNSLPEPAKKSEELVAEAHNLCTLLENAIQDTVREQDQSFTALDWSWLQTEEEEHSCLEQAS
T2 sequence (O15111 whole entry): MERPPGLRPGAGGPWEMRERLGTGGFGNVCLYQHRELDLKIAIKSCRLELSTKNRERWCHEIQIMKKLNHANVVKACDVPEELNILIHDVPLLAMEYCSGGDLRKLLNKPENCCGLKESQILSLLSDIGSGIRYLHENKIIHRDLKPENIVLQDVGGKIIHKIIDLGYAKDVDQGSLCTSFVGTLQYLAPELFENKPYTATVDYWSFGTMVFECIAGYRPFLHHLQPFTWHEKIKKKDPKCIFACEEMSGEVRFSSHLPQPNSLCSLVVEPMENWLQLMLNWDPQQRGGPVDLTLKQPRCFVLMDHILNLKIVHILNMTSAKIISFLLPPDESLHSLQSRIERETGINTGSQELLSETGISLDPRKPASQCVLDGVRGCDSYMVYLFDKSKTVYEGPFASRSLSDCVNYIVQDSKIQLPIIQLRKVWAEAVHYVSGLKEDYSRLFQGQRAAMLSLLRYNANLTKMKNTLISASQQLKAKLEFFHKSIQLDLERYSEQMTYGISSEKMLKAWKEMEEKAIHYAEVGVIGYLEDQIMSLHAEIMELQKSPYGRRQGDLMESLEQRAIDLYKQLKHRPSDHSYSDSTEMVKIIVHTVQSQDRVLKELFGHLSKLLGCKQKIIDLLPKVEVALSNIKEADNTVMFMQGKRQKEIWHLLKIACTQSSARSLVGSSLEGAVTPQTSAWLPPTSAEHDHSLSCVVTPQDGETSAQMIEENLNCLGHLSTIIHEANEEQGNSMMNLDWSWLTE
T2 sequence (Q9Y6K9 whole entry partner): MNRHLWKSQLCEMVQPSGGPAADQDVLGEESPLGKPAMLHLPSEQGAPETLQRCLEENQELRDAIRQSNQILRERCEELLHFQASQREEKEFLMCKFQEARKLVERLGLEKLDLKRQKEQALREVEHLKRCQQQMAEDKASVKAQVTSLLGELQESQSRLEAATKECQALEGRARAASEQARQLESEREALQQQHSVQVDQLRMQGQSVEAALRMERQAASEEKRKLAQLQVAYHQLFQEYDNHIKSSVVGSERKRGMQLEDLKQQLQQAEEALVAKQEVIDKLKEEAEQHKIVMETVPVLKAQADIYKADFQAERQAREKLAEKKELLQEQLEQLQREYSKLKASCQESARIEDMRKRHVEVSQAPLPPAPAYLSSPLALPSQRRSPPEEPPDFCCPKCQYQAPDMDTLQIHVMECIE
Description: Using endogenous IKK complex. IKK was immunoprecipitated from HEK293T cells. 3 petri dishes (100×15 mm, corning) of cells at 70% confluence were induced with 10 nM recombinant TNFα (abcam, #ab9642) for 10 minutes, and then washed twice by cold PBS. The whole-cell extracts were prepared by addition of 1 ml of lysis buffer (50 mM HEPES pH 8, 200 mM NaCl, 0.5% NP-40, 1 mM EDTA, 10 mM KCl, 1 mM DTT, Roche cOmplete™ protease inhibitors cocktail, 50 mM NaF, 50 mM b-glycerophosphate and 1 mM Na orthovanadate) and homogenized by passing through a 21-gauge needle for 5-10 times. After 30 minutes of incubation on ice, the extracts were centrifuged at 11,000 g and at 4° C. The cleared supernatants were incubated with 15 μl of anti-NEMO antibody (Santa Cruz biotech, #F-10) overnight at 4° C. and, then, immunoprecipitated with 150 μl of protein G Sepharose beads (GE, #17-0618-01) for 2 hours at 4° C. […]
Kinase activity reactions were performed in kinase buffer (defined above) using 50 μl immunoprecipitant and 1 μM of purified full-length 6×His-IκBα wt or mutant constructs. […] The reaction products were analysed on a 10% SDS-PAGE gel and Western blotting using anti-phospho-IκBα (Cell Signaling Technology, #9246), anti-IKKβ (cell signaling, #2684s) and anti-6×His (sigma, #SAB4301134) antibodies. The relative amounts of phosphorylated IκBα were quantified using ImageJ.

| interaction with IKKβ by pulldown (6×His-IKKβ(1-669) EE) | SMILES | inhibition of IκBα phosphorylation (Ser32/Ser36) [1] |
| --- | --- | --- |
| clearly enhance binding to IKKβ | CC(C)C[C@H](NC(=O)[C@@H](NC(=O)[C@H](CC(C)C)NC(=O)[C@H](CCCNC(=N)N)NC(=O)[C@H](CCC(N)=O)NC(=O)CNC(=O)CNC(=O)[C@H](Cc1ccccc1)NC(=O)[C@@H](NC(=O)[C@H](CC(C)C)NC(=O)[C@H](CC(=O)O)NC(=O)[C@H](CC(=O)O)NC(=O)[C@H](Cc1ccc(O)cc1)NC(=O)[C@@H]1CCCN1C(=O)[C@H](CC(C)C)NC(=O)[C@H](CCC(=O)O)NC(=O)[C@H](CC(=O)O)NC(=O)[C@H](CCC(=O)O)NC(=O)[C@@H](NC(=O)[C@H](Cc1ccccc1)NC(=O)[C@@H](N)CCC(=O)O)[C@@H](C)O)C(C)C)[C@@H](C)O)C(=O)O [IkBα pep C308L] (H-EFTEDELPYDDLVFGGQRLTL-OH; N-terminus and C-terminus assumed) | inhibit IκBα phosphorylation more efficiently than the YD/SS negative control peptide |
| – | CC(C)C[C@H](NC(=O)[C@@H](NC(=O)[C@H](CC(C)C)NC(=O)[C@H](CCCNC(=N)N)NC(=O)[C@H](CCC(N)=O)NC(=O)CNC(=O)CNC(=O)[C@H](Cc1ccccc1)NC(=O)[C@@H](NC(=O)[C@H](CS)NC(=O)[C@H](CC(=O)O)NC(=O)[C@H](CC(=O)O)NC(=O)[C@H](Cc1ccc(O)cc1)NC(=O)[C@@H]1CCCN1C(=O)[C@H](CC(C)C)NC(=O)[C@H](CCC(=O)O)NC(=O)[C@H](CC(=O)O)NC(=O)[C@H](CCC(=O)O)NC(=O)[C@@H](NC(=O)[C@H](Cc1ccccc1)NC(=O)[C@@H](N)CCC(=O)O)[C@@H](C)O)C(C)C)[C@@H](C)O)C(=O)O [IκBα pep] (H-EFTEDELPYDDCVFGGQRLTL-OH; N-terminus and C-terminus assumed) | inhibit IκBα phosphorylation more efficiently than the YD/SS negative control peptide |
